{"source": "patent US20250066419A1", "about": "(priority 2021, published 2025)", "key": {"[1]": {"tested_on": "BMDCs"}, "[2]": {"tested_on": "dendritic cells"}, "[3]": {"tested_on": "MoDCs"}}, "data": [{"substance": "FITC-linker-YGRRARRRRRRIYSIKDTKLGN-biotin [CTP-SEB2]", "values": [{"measurement": "permeability effect (degree of fluorescent labeling of cells)", "setting": "[1]", "result": "permeability effect is greater"}, {"measurement": "peptide permeability in DCs (peptide-FITC in CD11c+ CD80+ population)", "setting": "[2]", "result": "permeated a large amount of peptide"}, {"measurement": "penetration of peptide into MoDCs", "setting": "[3]", "result": "penetrated MoDCs much more"}]}]}
